Measured values published in patent publication US10280159B2 (AbbVie Deutschland GmbH & Co. KG, priority 2015, dated 2019).
Counter-ions that a name gives are not always drawn. Like-named read-outs stand apart in the source and are kept apart here.

How the values were obtained:
Assay type in all cases: cell-based
human S1PR1 = molecular target: T1, human S1PR1 (Homo sapiens, UniProt P21453); experiment: Intracellular Ca2+ release (FLIPR) agonist potency, S1P1
T1 construct: host or cells: CHO-K1
Summary of the method: (§1)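 CHO-K1 cells recombinantly expressing the human S1P receptor plus aequorin and Gq/i5 were grown in F-12 Ham with 10% FBS. Agonist-induced intracellular Ca2+ release was read on a FLIPR Tetra. EC50 came from nonlinear fits of raw fluorescence normalized to the phospho-fingolimod reference curve.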

human S1PR3 = molecular target: T2, human S1PR3 (Homo sapiens, UniProt Q99500); experiment: Intracellular Ca2+ release (FLIPR) agonist potency, S1P3
T2 construct: host or cells: CHO-K1
Procedure: Agonistic activity was measured using the method described below.
Intracellular Ca^2+ Release
Agonist potency and intrinsic activity was assessed by measurement of intracellular Ca^2+ release. Recombinant CHO-K1 cells (Euroscreen, Brussels, Belgium) expressing human S1PR5, S1PR1, S1PR3 or S1PR4 receptors, aequorin, and GTP binding protein Gq/i5 were cultured using a medium containing nutrient mixture F-12 Ham (Sigma-Aldrich) with 10% FBS, and 100 μg/mL gentamicin and equilibrated at 5% CO2.
Phospho-fingolimod was used as positive control. Antagonists were pre-incubated for 10 min with cells before addition of the agonist (phospho-fingolimod at EC80). Measurements were performed using a fluorometric imaging plate reader FLIPR®tetra (Molecular Devices). Agonist at the human S1P receptors were characterized by deducing EC50 (potency) values from a nonlinear fit to the measured fluorescence raw data after normalization to the reference agonist (phospho-fingolimod) curve.

human S1PR4 = molecular target: T3, human S1PR4 (Homo sapiens, UniProt O95977); experiment: Intracellular Ca2+ release (FLIPR) agonist potency, S1P4
T3 construct: host or cells: CHO-K1
T3 sequence (O95977 1-384): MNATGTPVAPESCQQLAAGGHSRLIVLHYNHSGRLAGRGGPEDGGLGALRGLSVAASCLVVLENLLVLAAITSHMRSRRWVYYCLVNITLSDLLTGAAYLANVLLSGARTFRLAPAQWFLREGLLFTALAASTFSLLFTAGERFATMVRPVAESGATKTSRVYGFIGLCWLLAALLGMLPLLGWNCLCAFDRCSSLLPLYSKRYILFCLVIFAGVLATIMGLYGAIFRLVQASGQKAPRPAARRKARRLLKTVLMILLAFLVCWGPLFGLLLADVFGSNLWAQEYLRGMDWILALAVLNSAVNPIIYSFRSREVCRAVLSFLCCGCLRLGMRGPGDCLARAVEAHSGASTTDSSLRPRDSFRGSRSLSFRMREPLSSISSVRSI
Summary of the method: as §1

human S1PR5 = molecular target: T4, human S1PR5 (Homo sapiens, UniProt Q9H228); experiment: Intracellular Ca2+ release (FLIPR) agonist potency, S1P5
T4 construct: host or cells: CHO-K1
Summary of the method: as §1

[1] = recombinant CHO-K1 cells expressing human S1PR1, aequorin, Gq/i5, Calcium 5 FLIPR, read-out: S1P1 EC50
[2] = recombinant CHO-K1 cells expressing human S1PR3, aequorin, Gq/i5, Calcium 5 FLIPR, read-out: S1P3 EC50
[3] = recombinant CHO-K1 cells expressing human S1PR4, aequorin, Gq/i5, Calcium 5 FLIPR, read-out: S1P4 EC50
[4] = recombinant CHO-K1 cells expressing human S1PR5, aequorin, Gq/i5, Calcium 5 FLIPR, read-out: S1P5 EC50 range

T4 sequence (Q9H228 whole entry): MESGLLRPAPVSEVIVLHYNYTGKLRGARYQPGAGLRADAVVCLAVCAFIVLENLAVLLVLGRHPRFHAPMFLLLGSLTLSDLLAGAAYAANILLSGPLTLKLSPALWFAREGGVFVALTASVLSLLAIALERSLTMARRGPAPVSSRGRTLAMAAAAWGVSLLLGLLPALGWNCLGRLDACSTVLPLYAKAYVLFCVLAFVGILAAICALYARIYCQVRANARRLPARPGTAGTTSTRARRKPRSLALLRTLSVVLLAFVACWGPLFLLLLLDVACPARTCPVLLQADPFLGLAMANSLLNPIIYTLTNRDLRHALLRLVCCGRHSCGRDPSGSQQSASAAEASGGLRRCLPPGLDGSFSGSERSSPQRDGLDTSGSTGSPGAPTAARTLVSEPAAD
T2 sequence (Q99500 whole entry): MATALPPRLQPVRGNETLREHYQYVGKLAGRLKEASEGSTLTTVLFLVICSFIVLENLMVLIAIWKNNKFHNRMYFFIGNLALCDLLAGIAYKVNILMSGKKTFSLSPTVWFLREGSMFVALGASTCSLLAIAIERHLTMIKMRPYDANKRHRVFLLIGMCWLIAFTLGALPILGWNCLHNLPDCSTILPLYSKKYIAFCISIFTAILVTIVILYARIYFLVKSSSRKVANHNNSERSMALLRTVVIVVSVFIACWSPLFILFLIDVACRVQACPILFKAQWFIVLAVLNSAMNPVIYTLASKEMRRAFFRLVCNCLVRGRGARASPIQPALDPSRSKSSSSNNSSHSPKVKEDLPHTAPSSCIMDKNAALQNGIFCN
T1 sequence (P21453 whole entry): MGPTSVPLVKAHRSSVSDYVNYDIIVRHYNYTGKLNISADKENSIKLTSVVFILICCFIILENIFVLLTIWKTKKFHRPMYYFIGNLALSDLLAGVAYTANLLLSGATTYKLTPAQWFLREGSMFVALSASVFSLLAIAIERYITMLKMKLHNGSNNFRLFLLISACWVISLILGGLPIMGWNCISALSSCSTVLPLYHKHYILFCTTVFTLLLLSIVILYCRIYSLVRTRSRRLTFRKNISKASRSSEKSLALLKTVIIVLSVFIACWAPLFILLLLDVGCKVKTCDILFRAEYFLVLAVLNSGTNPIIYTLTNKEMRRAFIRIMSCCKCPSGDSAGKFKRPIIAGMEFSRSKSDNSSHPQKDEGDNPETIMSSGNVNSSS

EC50 (human S1PR1; [1])	EC50 (human S1PR3; [2])	EC50 (human S1PR4; [3])	EC50 (human S1PR5; [4])	SMILES	EC50 (human S1PR1)	EC50 (human S1PR3)	EC50 (human S1PR4)	EC50 (human S1PR5; S1P5 EC50 range)
> 1000 nM	> 1000 nM	< 1000 nM	10 to 100 nM	O=C(O)C1CCN(CC2OCCc3cc(OCc4c(Cl)cccc4Cl)ccc32)CC1 (centres unmarked) [Compound 70, 1-((6-((2,6-dichlorobenzyl)oxy)isochroman-1-yl)methyl)piperidine-4-carboxylic acid]				
< 1000 nM	> 1000 nM	< 1000 nM	< 10 nM	CCc1cccc(Cl)c1COc1ccc2c(c1)CCC(NCC(=O)O)C2 (centres unmarked) [Compound 73, 2-((6-((2-chloro-6-ethylbenzyl)oxy)-1,2,3,4-tetrahydronaphthalen-2-yl)amino)acetic acid]				
> 1000 nM	> 1000 nM	< 1000 nM	< 10 nM	O=C(O)C1CCN(C2CCc3cc(OCc4c(Cl)cccc4Cl)ccc3C2)C1 (centres unmarked) [Compound 74, 1-(6-((2,6-dichlorobenzyl)oxy)-1,2,3,4-tetrahydronaphthalen-2-yl)pyrrolidine-3-carboxylic acid]				
> 1000 nM	> 1000 nM	< 1000 nM	< 10 nM	O=C(O)CNC1CCc2cc(OCc3c(Cl)cccc3Cl)ccc2C1 (centres unmarked) [Compound 75, 2-((6-((2,6-dichlorobenzyl)oxy)-1,2,3,4-tetrahydronaphthalen-2-yl)amino)acetic acid]				
< 1000 nM	> 1000 nM	< 1000 nM	< 10 nM	O=C(O)[C@H]1C[C@@H](NC2CCc3cc(OCc4c(Cl)cccc4Cl)ccc3C2)C1 (some centres unmarked) [Compound 77, (1 s,3s)-3-((6-((2,6-dichlorobenzyl)oxy)-1,2,3,4-tetrahydronaphthalen-2-yl)amino)cyclobutanecarboxylic acid]				
> 1000 nM	> 1000 nM	< 1000 nM	< 10 nM	O=C(O)CC1CN(C2CCc3cc(OCc4c(Cl)cccc4Cl)ccc3C2)C1 (centres unmarked) [Compound 78, 2-(1-(6-((2,6-dichlorobenzyl)oxy)-1,2,3,4-tetrahydronaphthalen-2-yl)azetidin-3-yl)acetic acid]				
< 1000 nM	> 1000 nM	< 1000 nM	< 10 nM	O=C(O)[C@H]1C[C@H](NC2CCc3cc(OCc4c(Cl)cccc4Cl)ccc3C2)C1 (some centres unmarked) [Compound 79, (1r,3r)-3-((6-((2,6-dichlorobenzyl)oxy)-1,2,3,4-tetrahydronaphthalen-2-yl)amino)cyclobutanecarboxylic acid]				
> 1000 nM	> 1000 nM	< 1000 nM	10 to 100 nM	O=C(O)CC1CCN(C2CCc3cc(OCc4c(Cl)cccc4Cl)ccc3C2)C1 (centres unmarked) [Compound 80, 2-(1-(6-((2,6-dichlorobenzyl)oxy)-1,2,3,4-tetrahydronaphthalen-2-yl)pyrrolidin-3-yl)acetic acid]				
> 1000 nM	> 1000 nM	> 1000 nM	1000 to 10000 nM	O=C(O)C1CN(C2COc3cc(CCc4cc(F)cc(F)c4)ccc3C2)C1 (centres unmarked) [Compound 81, 1-(7-(3,5-difluorophenethyl)chroman-3-yl)azetidine-3-carboxylic acid]				
< 1000 nM	> 1000 nM	< 1000 nM	< 10 nM	CCc1cccc(Cl)c1COc1ccc2c(c1)CCC1C2OCCN1CCC(=O)O (centres unmarked) [Compound 82, 3-(8-((2-chloro-6-ethylbenzyl)oxy)-5,6-dihydro-2H-naphtho[1,2-b][1,4]oxazin-4(3H,4aH,10bH)-yl)propanoic acid hydrochloride]				
> 1000 nM	> 1000 nM	> 1000 nM	< 10 nM	O=C(O)COC1CCc2cc(OCc3c(F)ccc(Cl)c3F)ccc2C1 (centres unmarked) [Compound 152, 2-[6-[(3-chloro-2,6-difluoro-phenyl)methoxy]tetralin-2-yl]oxyacetic acid]				
> 1000 nM	> 1000 nM	> 1000 nM	10 to 100 nM	O=C(O)COC1CCc2cc(OCc3cc(OC(F)(F)F)ccc3F)ccc2C1 (centres unmarked) [Compound 161, 2-[6-[[2-fluoro-5-(trifluoromethoxy)phenyl]methoxy]tetralin-2-yl]oxyacetic acid]				
> 1000 nM	> 1000 nM	> 1000 nM	< 10 nM	O=C(O)COC1CCc2cc(OCc3c(Cl)cccc3C(F)(F)F)ccc2C1 (centres unmarked) [Compound 167, 2-[6-[[2-chloro-6-(trifluoromethyl)phenyl]methoxy]tetralin-2-yl]oxyacetic acid]				
> 1000 nM	> 1000 nM	< 1000 nM	< 10 nM	O=C(O)COC1CCc2cc(OCc3cc(F)ccc3C(F)(F)F)ccc2C1 (centres unmarked) [Compound 168, 2-[6-[[5-fluoro-2-(trifluoromethyl)phenyl]methoxy]tetralin-2-yl]oxyacetic acid]				
> 1000 nM	> 1000 nM	> 1000 nM	10 to 100 nM	Cc1cccc(C)c1COc1ccc2c(c1)CCC(OCC(=O)O)C2 (centres unmarked) [Compound 175, 2-[6-[(2,6-dimethylphenyl)methoxy]tetralin-2-yl]oxyacetic acid]				
> 1000 nM	> 1000 nM	> 1000 nM	100 to 1000 nM	O=C(O)COC1CCc2cc(OCc3c(Cl)cccc3Cl)ccc2C1 (centres unmarked) [Compound 210, 2-[6-[(2,6-dichlorophenyl)methoxy]tetralin-2-yl]oxyacetic acid]				
> 1000 nM	> 1000 nM	> 1000 nM	10 to 100 nM	CC(C)(C)c1ccc(COc2ccc3c(c2)CCC(OCC(=O)O)C3)cc1 (centres unmarked) [Compound 211, 2-[6-[(4-tert-butylphenyl)methoxy]tetralin-2-yl]oxyacetic acid]				
> 1000 nM	> 1000 nM	< 1000 nM	10 to 100 nM	O=C(O)COC1CCc2cc(OCc3cccc(C(F)(F)F)c3)ccc2C1 (centres unmarked) [Compound 213, 2-[6-[[3-(trifluoromethyl)phenyl]methoxy]tetralin-2-yl]oxyacetic acid]				
> 1000 nM	> 1000 nM	> 1000 nM	< 10 nM	CCc1cccc(Cl)c1COc1ccc2c(c1)CCC(NCC(=O)N(C)OC)C2 (centres unmarked) [Compound 216, 2-[[6-[(2-chloro-6-ethyl-phenyl)methoxy]tetralin-2-yl]amino]-N-methoxy-N-methyl-acetamide]				
> 1000 nM	> 1000 nM	> 1000 nM	100 to 1000 nM	CCc1cccc(Cl)c1COc1ccc2c(c1)CCC(NCC(=O)NOC)C2 (centres unmarked) [Compound 218, 2-[[6-[(2-chloro-6-ethyl-phenyl)methoxy]tetralin-2-yl]amino]-N-methoxy-acetamide]				
				CCc1cccc(Cl)c1COc1ccc2c(c1)CCC(NCc1cc(=O)[nH]o1)C2 (centres unmarked) [Compound 220, 5-[[[6-[(2-chloro-6-ethyl-phenyl)methoxy]tetralin-2-yl]amino]methyl]isoxazol-3-one]	< 1000 nM	> 1000 nM	< 1000 nM	< 10 nM
> 1000 nM	> 1000 nM	< 1000 nM	< 10 nM	CCc1cccc(Cl)c1COc1ccc2c(c1)CCC(NCC(=O)NO)C2 (centres unmarked) [Compound 236, 2-((6-((2-chloro-6-ethylbenzyl)oxy)-1,2,3,4-tetrahydronaphthalen-2-yl)amino)acetohydroxamic acid]				
< 1000 nM	> 1000 nM	> 1000 nM	10 to 100 nM	CN(CC(=O)O)C1COc2cc(-c3ccc(OCc4ccccc4)cc3)ccc2C1 (centres unmarked) [Compound 238, 2-((7-(4-(benzyloxy)phenyl)chroman-3-yl)(methyl)amino)acetic acid]				
